The source of these data is patent US9802974B2, “Synthesis of diverse glycosylphosphatidylinositol glycans from Toxoplasma gondii and their application as vaccines and diagnostics” (Max-Planck-Gesellschaft zur Förderung der Wissenschaften …, priority 2012, dated 2017).

The assay concerns T. gondii tachyzoites. The experiment in a line: Immunofluorescence confocal microscopy of T. gondii tachyzoites with serum of mice immunized with the compound 4-CRM197 conjugate. Format: binding, Toxoplasma gondii. To be noted: paraformaldehyde-fixed tachyzoites, pooled serum from immunized mice, FIG. 13. The protocol: Full circle in (C) indicates the apical and half circle the basolateral end of the parasite (white bar=5 μm).
Extracellular tachyzoites collected from cell culture supernatants were fixed with 4% (w/v) paraformaldehyde in PBS for 30 min. Cells were washed three times with PBS, and incubated for 1 h with mice sera raised against compounds 3 or 4 diluted to 100 in PBS, 10% BSA. Cells were washed three times with PBS before incubated for 1 h with secondary FITC-conjugated anti-mouse immunoglobulin antibody (DakoCytomation, Glostrup) containing 10% BSA and washed finally three times with PBS. After three final washes with PBS, aliquot were spotted on microscope slides followed by a glass cover slides, mounted in Fluoroprep (Dako) and recorded by using a 100× Plan-NeoFluar oil objective lens with NA 1.30 using an Axiophot microscop (Zeiss).
In contrast, antibodies binding to the parasite in sera of mice before immunization could not be detected. […] Tachyzoites secrete factors for attachment, invasion and formation of the parasitophorous vacuole, which is surrounding and protecting the parasite inside the host cell from endocytosis, in a regulated fashion from the apical region. […]

For the substance “6-O-(aminoethyl phosphono)-α-D-mannopyranosyl-(1→2)-α-D-mannopyranosyl-(1→6)-4-O-(α-D-glucopyranosyl-(1→4)-2-deoxy-2-acetamido-β-D-galactopyranosyl)-α-D-manno-pyranosyl-(1→4)-2-amino-2-deoxy-α-D-glucopyranosyl-(1→6)-1-O-(thiohexyl phosphono)-D-myo-inositol [compound 4]”, the “recognition of the natural GPI antigen on the T. gondii parasite by antibodies raised against the substance” value was “bound to the surface of the parasite”.
